Data published in patent US20240035033A1, “PREVENTION AND TREATMENT OF AGE-RELATED MACULAR DEGENERATION THROUGH SUPPRESSION OF CATHEPSIN S EXPRESSION” (CHUNG-ANG UNIVERSITY INDUSTRY-ACADEMIC COOPERATION …, priority 2022, published 2024).

Columns and labels:
Type in all cases: cell-based, human
C3a and C5a = experiment: immunofluorescence analysis of C3a and C5a expression in RPE cells; conditions: siRNA 24 hours, Bay 1170-82 10 μM, control DMSO / control siRNA
Description: In order to confirm the inhibitory effect of complement activity in the case of treatment with an inhibitor of cathepsin S expression or activity, RPE cells were treated with cathepsin S siRNA (CTSS siRNA, CTSSiRNA) and then the effect of inhibiting complement activity was analyzed. At this time, NF-κB inhibitor were treated as a comparison group. Specifically, RPE cells were treated with control siRNA or CTSS siRNA for 24 hours in the presence or absence of NF-κB inhibitor Bay 1170-82 (10 μM), respectively. After that, immunofluorescence analysis was performed for the expression of C3a and C5a in RPE cells. Experimental methods and conditions were applied in the same manner as in Example 3.

iNOS = iNOS expression in RPE cells according to H2O2 treatment (RT-PCR, western blot)
Description: In addition, the expression level of iNOS expressed in RPE cells according to H2O2 treatment was analyzed. Specifically, after RPE cells were treated with 10 μM, 50 μM, and 100 μM H2O2, relative iNOS mRNA expression levels were confirmed, and western blot experiments were performed. Total RNA was prepared using a Ribospin™ II kit from GeneAll Biotechnology (Seoul, South Korea) according to the manufacturer's recommendations. Total RNA (1 μg) was reverse transcribed into first-strand cDNA using an iScript™ cDNA Synthesis kit (Bio-Rad Laboratories, Inc., California, USA) according to the manufacturer's instructions, real-time reverse transcription-polymerase chain reaction (RT-PCR) was performed using a Thermal Cycler CFX96™ Real-Time PCR System (Bio-Rad Laboratories, USA), and each experiment was repeated three times to derive the results. RPE cells were washed with ice-cold PBS and then extracted with a protein lysis buffer (Intron Biotechnology, Seoul, South Korea). Protein samples of cell lysates were mixed with an equal volume of 2×SDS sample buffer, denatured by heating for 5 minutes and then separated on a 10% SDS-PAGE gel. After electrophoresis, proteins were transferred to a polyvinylidene difluoride membrane, and the membrane was blocked and washed using 5% BSA for 40 minutes. […]

ARPE-19 cells = experiment: MTT viability of RPE cells according to H2O2 treatment; conditions: H2O2 6.25-100 μM, 48 hours, compared to the control
Description: In order to confirm the decrease in viability of retinal pigment epithelium cells (RPE cells, hereinafter referred to as RPE cells) according to H2O2 treatment, MTT analysis was performed, and the viability and iNOS expression of RPE cells according to H2O2 treatment were confirmed.
First, a human retinal-pigmented epithelial cell line (hereinafter referred to as ARPE-19 cells (ATCC, Manassas, VA, USA)) was used and inoculated into 96-well plates and cultured for 24 hours. Thereafter, the cells were treated with 6.25 μM 12.5 μM, 25 μM, 50 μM, and 100 μM H2O2 for 48 hours, a 3-(4,5-dimethylthiazol-2-yl)-2,5-diphenyl-tetrazolium bromide (MTT) solution was added to the medium, and the cells were cultured at 37° C. for 4 hours. The MTT-comprising medium was removed and the cells were lysed in 50 μl of DMSO. An optical density at 540 nm was confirmed using a microplate spectrophotometer (SpectraMax; Molecular Devices, Sunnyvale, CA, USA), and cell viability was determined by repeating each experiment three times to calculate an average value.

PPARγ and VEGFA/AKT = experiment: western blot of angiogenic factors in RPE cells; conditions: RPE cells treated with H2O2
Excerpt: (§1) In the case of treatment with an inhibitor of cathepsin S expression or activity, it was confirmed whether angiogenesis in RPE cells induced by oxidative stress was reduced. Specifically, the expression levels of PPARγ and VEGFA/AKT, which play key roles in neovascularization, differentiation, migration, and proliferation, were confirmed through western blotting experiments, and the experimental methods and conditions were applied in the same manner as in Example 2. In addition, to confirm the presence or absence of cell tube formation, HUVECs (1×10^5) were treated on a Matrigel-coated 96-well-plate with reduced growth factors, and then the cells were treated with a conditioned medium (CM) for 2 hours by treating RPE cells with CTSS siRNA and H2O2 at 37° C. for 48 hours, and images were analyzed with an inverted fluorescence microscope.

cathepsin S (CTSS) [1] = experiment: cathepsin S expression in RPE cells under oxidative stress (mRNA, western blot)
Description: To confirm the expression of cathepsin S (CTSS) in RPE cells under oxidative stress conditions, RPE cells were treated with H2O2 and the expression of cathepsin S (CTSS) was determined. Specifically, the cells was treated with 10 μM and 50 μM H2O2, cathepsin S mRNA expression level analysis and western blot experiments were performed in order to confirm the expression of cathepsin S, and the same experimental method and conditions as in Example 1 were applied, except that cathepsin S-specific antibodies were used.

HUVECs = experiment: tube formation of HUVECs treated with conditioned medium of RPE cells; conditions: conditioned medium of H2O2-treated control RPE cells, 2 hours
Excerpt: as §1

cathepsin S (CTSS) [2] = experiment: immunofluorescence analysis of cathepsin S in RPE cells; conditions: H2O2 50 μM, 48 hours
Description: Immunofluorescence analysis was performed to confirm the suppression of cathepsin S in cathepsin S knockdown RPE cells of Example 3-1. Specifically, after cells prepared in the same manner as in the mRNA expression level analysis were washed twice with sterile PBS and fixed with 4% paraformaldehyde at room temperature for 30 minutes, the fixation was stopped by washing the cells three times with PBS. The cells were permeabilized with PBS comprising 0.01% Triton X-100 […]. After blocking for 1 hour, the insert membrane was removed using a scalpel and placed on Parafilm prior to being incubated with a primary antibody (depending on the protein of interest). All primary antibodies were diluted 1:50 in 5% BSA and PBS and used, and cultured at 4° C. overnight. Thereafter, the cells were washed three times with PBS and a secondary FITC- or TRITC-conjugated antibody was diluted 1:50 and applied at room temperature for 1 hour. After 1 mg/ml DAPI was added 10 minutes before removing a secondary antibody to stain the nuclei, the cells were coated with a mounting medium and a glass coverslip was placed on top. The membrane/coverslip was fixed to the glass slide using a mounting medium, and cells were observed under a fluorescence microscope (Leica DFC7000T).

SMILES | expression of C3a (immunofluorescence) (C3a and C5a) | expression of C5a (immunofluorescence) (C3a and C5a) | relative iNOS mRNA levels (iNOS; RPE cells, 50 μM and 100 μM H2O2) | iNOS protein (western blot) (iNOS; RPE cells, 10, 50, 100 μM H2O2) | cell viability (MTT) (ARPE-19 cells) | expression level of PPARγ (western blot) (PPARγ and VEGFA/AKT) | expression level of VEGFA/AKT (p-AKT) (western blot) (PPARγ and VEGFA/AKT) | cathepsin S protein band (western blot) (cathepsin S (CTSS) [1]; 10 μM and 50 μM H2O2) | relative mRNA level of cathepsin S (cathepsin S (CTSS) [1]; 10 μM and 50 μM H2O2, vs control) | tube formation (HUVECs) | cathepsin S expression (red fluorescence) (cathepsin S (CTSS) [2])
Cc1ccc(S(=O)(=O)/C=C/C#N)cc1 [Bay 1170-82] | suppressed | suppressed | – | – | – | – | – | – | – | – | –
OO [H2O2] | – | – | increased | increased in a H2O2 concentration-dependent manner | decrease in cell viability | increased | increased | appeared thick and dark | higher than that of the control | marked increase in tube formation | significantly increased
